Patent US11472805B2, “Tricyclic compounds and their use as phosphodiesterase inhibitors” (Pfizer Inc., priority 2015, dated 2022)
pIC50: −log10 of the molar value. Like-named read-outs stand apart in the source and are kept apart here.

Key:
Type in all cases: biochemical
human PDE4D3 = human PDE4D3 (Homo sapiens (Human), UniProt Q08499); test: PDE4D3 Scintillation Proximity Assay (SPA), inhibition of enzyme activity; settings: read-out: Human PDE4D FL
Method in brief: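 His-tagged human PDE4D3 (aa 50–672), expressed in insect cells, hydrolysed 1 μM cAMP (3H tracer plus cold) for 30 min at 25° C in 50 mM Tris pH 7.5, 1.3 mM MgCl2 and 0.01% Brij. Enzyme level was set for ~20% conversion. Product was read by yttrium silicate SPA beads after 8 h settling.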

Human PDE4A3 = Human PDE4A3 (Homo sapiens (Human), UniProt P27815); test: PDE4A3 Scintillation Proximity Assay (SPA), inhibition of enzyme activity; settings: read-out: Human PDE4A FL
Method in brief: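 Recombinant human PDE4A3 expressed in insect cells, purified via Ni-NTA, anti-FLAG and size exclusion. SPA run 30 min at 25 °C in 50 mM Tris pH 7.5, 1.3 mM MgCl2, 0.01% Brij with 1 μM cAMP (20 nM 3H-cAMP), […], ~20% substrate conversion; stopped with yttrium silicate beads.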

Human PDE4C1 = Human PDE4C1 (Homo sapiens (Human), UniProt Q08493); test: PDE4C1 Scintillation Proximity Assay (SPA), inhibition of enzyme activity; settings: read-out: Human PDE4C FL
Description: The PDE4A, PDE4B, PDE4C and PDE4D binding affinity for the compounds of the present invention was determined utilizing the following biological assay(s):
The recombinant Bacmid was isolated and used to transfect insect cells to generate a viral stock. To generate cell paste for purification, insect cells were infected with the virus stock and cells were harvested 72 hours after infection. Insect cell paste was lysed and after centrifugation, the supernatant was batch bound to Ni-NTA agarose (GE Healthcare) and eluted with 250 mM imidazole. This eluate was diluted with FLAG buffer (50 mM Tris HCL pH 7.5, 100 mM NaCl, 5% Glycerol, 1 mM TCEP with protease inhibitors) and batch bound to ant-FLAG M2 agarose (Sigma) overnight at 4° C. The agarose was packed into a column, washed with buffer and eluted with buffer containing elute using 250 ug/ml Flag-peptide. Fractions were analyzed using SDS-PAGE Coomassie blue staining and pooled based on purity. Pooled fractions were chromatographed on a S200 120 ml column (GE Healthcare) in 50 mM Tris HCL pH 7.5, 150 mM NaCl, 10% Glycerol, 2 mM TCEP with protease inhibitors. PDE4C1 fractions were analyzed by SDS-PAGE Coomassie blue staining, pooled based on purity, dialyzed against 50 mM Tris HCL pH 7.5, 100 mM NaCl, 20% Glycerol, 2 mM TCEP, frozen and stored at −80° C.
The PDE4A3, PDE4B1, PDE4C1 and PDE4D3 assays use the Scintillation Proximity Assay (SPA) technology to measure the inhibition of human recombinant PDE4A1, PDE4B3, PDE4C1, and PDE4D3 enzyme activity by compounds in vitro. The PDE4A1, PDE4B3, PDE4C1, and PDE4D3 assays are run in parallel using identical parameters, except for the concentration of enzyme ([…]). The assays are performed in a 384-well format with 50 uL assay buffer (50 mM TRIS pH7.5; 1.3 mM MgCl2; 0.01% Brij) containing enough PDE4A3, PDE4B1, PDE4C1, and PDE4D to convert ˜20% of substrate (1 μM cAMP consisting of 20 nM 3H-cAMP+[…] cold cAMP) and a range of inhibitors. Reactions are incubated for 30 min at 25° C. The addition of 20 uL of 8 mg/ml yitrium silicate SPA beads (Perkin Elmer) stops the reaction. The plates are sealed (TopSeal, Perkin Elmer) and the beads are allowed to settle for 8 hrs, after which they are read on the Trilux Microbeta overnight.

Human PDE4B1 = Human PDE4B1 (Homo sapiens (Human), UniProt Q07343, S133E/S654A/S659A/S661A); test: PDE4B1 Scintillation Proximity Assay (SPA), inhibition of enzyme activity; settings: read-out: Human PDE4B FL
Method in brief: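 His-tagged enzyme from baculovirus-infected insect cells, Ni-NTA purified. SPA with 1 μM cAMP (20 nM 3H-cAMP tracer) in 50 mM Tris pH 7.5, 1.3 mM MgCl2, 0.01% Brij, […] PDE4B enzyme for ~20% substrate conversion; 30 min at 25 °C, stopped with yttrium silicate beads, read after 8 h settling.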

[1] = Table 9, geometric mean of 2-9 determinations unless otherwise indicated
[2] = Table 10, geometric mean of 2-9 determinations unless otherwise indicated

Chain of human PDE4D3 (Q08499 186-808): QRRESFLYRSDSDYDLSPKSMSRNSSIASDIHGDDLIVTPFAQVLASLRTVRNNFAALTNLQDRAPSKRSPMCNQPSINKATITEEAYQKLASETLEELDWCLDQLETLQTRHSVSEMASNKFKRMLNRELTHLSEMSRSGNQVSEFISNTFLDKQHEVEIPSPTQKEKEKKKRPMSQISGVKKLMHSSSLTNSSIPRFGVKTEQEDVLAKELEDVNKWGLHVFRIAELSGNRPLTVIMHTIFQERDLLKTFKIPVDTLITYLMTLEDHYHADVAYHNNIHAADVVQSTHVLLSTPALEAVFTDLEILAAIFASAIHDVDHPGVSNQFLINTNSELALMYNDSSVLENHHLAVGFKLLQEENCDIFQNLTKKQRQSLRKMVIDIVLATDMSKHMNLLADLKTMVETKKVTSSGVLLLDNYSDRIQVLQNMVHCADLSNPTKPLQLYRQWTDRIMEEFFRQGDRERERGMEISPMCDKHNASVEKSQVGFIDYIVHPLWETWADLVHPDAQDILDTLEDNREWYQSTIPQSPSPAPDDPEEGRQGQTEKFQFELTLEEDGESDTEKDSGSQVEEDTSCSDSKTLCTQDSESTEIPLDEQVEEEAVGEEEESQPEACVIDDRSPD
Chain of Human PDE4C1 (Q08493 2-712): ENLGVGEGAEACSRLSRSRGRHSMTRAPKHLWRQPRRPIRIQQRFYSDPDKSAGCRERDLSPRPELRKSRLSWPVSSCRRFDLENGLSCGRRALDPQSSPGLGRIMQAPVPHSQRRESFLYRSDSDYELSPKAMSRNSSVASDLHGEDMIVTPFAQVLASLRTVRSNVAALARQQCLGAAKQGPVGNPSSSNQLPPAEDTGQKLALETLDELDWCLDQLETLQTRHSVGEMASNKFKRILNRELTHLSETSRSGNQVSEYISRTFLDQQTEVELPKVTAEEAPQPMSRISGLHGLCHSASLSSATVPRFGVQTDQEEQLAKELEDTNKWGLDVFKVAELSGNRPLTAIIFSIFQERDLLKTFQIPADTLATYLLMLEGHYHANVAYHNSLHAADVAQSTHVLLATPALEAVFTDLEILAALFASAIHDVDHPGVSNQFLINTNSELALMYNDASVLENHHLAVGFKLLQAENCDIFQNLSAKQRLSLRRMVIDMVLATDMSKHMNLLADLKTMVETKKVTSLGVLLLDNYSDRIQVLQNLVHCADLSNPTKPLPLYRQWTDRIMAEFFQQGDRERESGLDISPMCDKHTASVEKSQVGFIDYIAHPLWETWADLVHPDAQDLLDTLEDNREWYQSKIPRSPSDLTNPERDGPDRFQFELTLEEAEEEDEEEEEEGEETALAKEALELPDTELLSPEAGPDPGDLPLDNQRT
Chain of Human PDE4A3 (P27815 other isoform, or with tags, fused parts or gaps): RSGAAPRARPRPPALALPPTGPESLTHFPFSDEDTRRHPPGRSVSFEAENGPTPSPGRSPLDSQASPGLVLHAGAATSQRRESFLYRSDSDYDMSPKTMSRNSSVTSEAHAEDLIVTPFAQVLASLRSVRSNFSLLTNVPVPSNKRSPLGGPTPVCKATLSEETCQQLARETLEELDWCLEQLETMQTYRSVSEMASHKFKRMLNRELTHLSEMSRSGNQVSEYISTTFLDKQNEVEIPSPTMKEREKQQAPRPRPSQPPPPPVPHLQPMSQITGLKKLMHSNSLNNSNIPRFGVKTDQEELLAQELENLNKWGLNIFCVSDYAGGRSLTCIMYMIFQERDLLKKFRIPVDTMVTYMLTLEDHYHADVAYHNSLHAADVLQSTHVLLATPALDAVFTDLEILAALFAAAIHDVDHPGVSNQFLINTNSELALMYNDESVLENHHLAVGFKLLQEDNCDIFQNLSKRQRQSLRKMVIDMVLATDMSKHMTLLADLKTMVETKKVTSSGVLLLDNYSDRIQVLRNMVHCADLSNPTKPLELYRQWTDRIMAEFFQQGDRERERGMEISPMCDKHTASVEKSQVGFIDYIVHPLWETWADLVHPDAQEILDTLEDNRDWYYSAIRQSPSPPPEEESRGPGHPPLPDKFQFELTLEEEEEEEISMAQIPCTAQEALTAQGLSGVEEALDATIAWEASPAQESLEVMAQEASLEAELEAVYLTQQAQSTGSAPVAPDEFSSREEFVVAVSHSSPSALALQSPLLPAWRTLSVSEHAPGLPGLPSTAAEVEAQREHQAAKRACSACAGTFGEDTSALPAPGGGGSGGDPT
Chain of Human PDE4B1 (Q07343 122-736 S133E/S654A/S659A/S661A): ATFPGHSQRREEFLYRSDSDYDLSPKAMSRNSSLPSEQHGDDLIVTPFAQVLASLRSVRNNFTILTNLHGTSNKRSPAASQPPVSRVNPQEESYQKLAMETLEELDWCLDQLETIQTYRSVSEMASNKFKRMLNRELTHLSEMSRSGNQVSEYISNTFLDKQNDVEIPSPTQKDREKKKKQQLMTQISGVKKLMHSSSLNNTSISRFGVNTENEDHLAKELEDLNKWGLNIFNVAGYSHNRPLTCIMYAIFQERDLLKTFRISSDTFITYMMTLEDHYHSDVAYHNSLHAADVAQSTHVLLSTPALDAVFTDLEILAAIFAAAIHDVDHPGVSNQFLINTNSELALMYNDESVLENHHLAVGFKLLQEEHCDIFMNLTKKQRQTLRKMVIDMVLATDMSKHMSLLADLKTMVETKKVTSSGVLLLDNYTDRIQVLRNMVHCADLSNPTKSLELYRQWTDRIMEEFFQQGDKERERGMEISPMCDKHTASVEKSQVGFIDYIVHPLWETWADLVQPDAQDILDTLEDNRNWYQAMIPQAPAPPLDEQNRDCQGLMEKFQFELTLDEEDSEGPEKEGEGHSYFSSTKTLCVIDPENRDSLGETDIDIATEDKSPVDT

Structure (SMILES)	pIC50 (human PDE4D3; [1])	pIC50 (Human PDE4A3; [1])	pIC50 (Human PDE4C1; [1])	pIC50 (Human PDE4B1; [1])	pIC50 (human PDE4D3; [2])	pIC50 (Human PDE4A3; [2])	pIC50 (Human PDE4C1; [2])	pIC50 (Human PDE4B1; [2])
O=C1c2c(-c3ccc4c(c3)CCO4)c3ncccc3n2CCN1C1CC1 [Example 35, 8-Cyclopropyl-10-(2,3-dihydro-1-benzofuran-5-yl)-7,8-dihydropyrido[2′,3′:4,5]pyrrolo[1,2-a]pyrazin-9(6H)-one]	6.85	8.68	8.26	8.38				
O=C1c2c(C3CCCC3)c3ncccc3n2CCN1C1CC1 [Example 86, 10-Cyclopentyl-8-cyclopropyl-7,8-dihydropyrido[2′,3′:4,5]pyrrolo[1,2-a]pyrazin-9(6H)-one]					7.54	8.60	7.74	8.58
O=C1c2c(-c3cncnc3)c3ncccc3n2CCN1C1CC1 [Example 55, 8-Cyclopropyl-10-(pyrimidin-5-yl)-7,8-dihydropyrido[2′,3′:4,5]pyrrolo[1,2-a]pyrazin-9(6H)-one]	5.43	6.65	6.30	6.95				
O=C1c2c(-c3cnc4ccoc4c3)c3ncccc3n2CCN1C1CC1 [Example 64, 8-Cyclopropyl-10-(furo[3,2-b]pyridin-6-yl)-7,8-dihydropyrido[2′,3′:4,5]pyrrolo[1,2-a]pyrazin-9(6H)-one]	6.34	8.45	7.43	7.94				
O=C1c2c(-c3cc(F)c(F)c(F)c3)c3ncccc3n2CCN1C1CC1 [Example 40, 8-Cyclopropyl-10-(3,4,5-trifluorophenyl)-7,8-dihydropyrido[2′,3′:4,5]pyrrolo[1,2-a]pyrazin-9(6H)-one]	7.76	> 9.39	8.36	> 9.17				
CCCc1ccnc(N2CCn3c(c(-c4ccc(Cl)cc4)c4ncccc43)C2=O)n1 [Example 97, 10-(4-Chlorophenyl)-8-(4-propylpyrimidin-2-yl)-7,8-dihydropyrido[2′,3′:4,5]pyrrolo[1,2-a]pyrazin-9(6H)-one]					5.95	6.54	6.28	5.98
O=C1c2c(-c3ccc(F)cc3F)c3ncccc3n2CCN1C1CC1 [Example 38, 8-Cyclopropyl-10-(2,4-difluorophenyl)-7,8-dihydropyrido[2′,3′:4,5]pyrrolo[1,2-a]pyrazin-9(6H)-one]	6.24	8.25	7.68	7.96				
Cn1ncc(Cl)c1-c1c2n(c3cccnc13)CCN(C1CC1)C2=O [Example 93, 10-(4-Chloro-1-methyl-1H-pyrazol-5-yl)-8-cyclopropyl-7,8-dihydropyrido[2′,3′:4,5]pyrrolo[1,2-a]pyrazin-9(6H)-one]					< 4.52	4.62	5.16	< 4.61
Cc1cc(Cl)c(F)cc1-c1c2c(n3c1C(=O)N(C1CC1)CC3)CCCO2 [Example 29, 10-(4-Chloro-5-fluoro-2-methylphenyl)-8-cyclopropyl-3,4,7,8-tetrahydro-2H-pyrano[2′,3′:4,5]pyrrolo[1,2-a]pyrazin-9(6H)-one]	7.90	9.00	8.61	9.00				
O=C1c2c(-c3ccc(Cl)c(F)c3)c3c(n2CCN1C1CC1)CCCO3 [Example 76, 10-(4-Chloro-3-fluorophenyl)-8-cyclopropyl-3,4,7,8-tetrahydro-2H-pyrano[2′,3′:4,5]pyrrolo[1,2-a]pyrazin-9(6H)-one]	7.67	> 9.51	8.70	> 9.26				

More lines, now with the values ahead:

pIC50 (human PDE4D3; [1])	pIC50 (Human PDE4A3; [1])	pIC50 (Human PDE4C1; [1])	pIC50 (Human PDE4B1; [1])	pIC50 (human PDE4D3; [2])	pIC50 (Human PDE4A3; [2])	pIC50 (Human PDE4C1; [2])	pIC50 (Human PDE4B1; [2])	Structure (SMILES)
7.54	> 9.52	> 9.24	> 9.28					C[C@H]1Cn2c(c(-c3ccc(Cl)cc3)c3ncccc32)C(=O)N1C1CC1 [Example 11, (7S)-10-(4-Chlorophenyl)-8-cyclopropyl-7-methyl-7,8-dihydropyrido[2′,3′: 4,5]pyrrolo[1,2-a]pyrazin-9(6H)-one]
6.55	8.80	8.10	8.24					COc1ccc(-c2c3n(c4cccnc24)CCN(C2CC2)C3=O)cc1F [Example 45, 8-Cyclopropyl-10-(3-fluoro-4-methoxyphenyl)-7,8-dihydropyrido[2′,3′:4,5]pyrrolo[1,2-a]pyrazin-9(6H)-one]
6.20	7.90	7.20	7.62					O=C1c2c(-c3ccc4ncnn4c3)c3ncccc3n2CCN1C1CC1 [Example 58, 8-Cyclopropyl-10-([1,2,4]triazolo[1,5-a]pyridin-6-yl)-7,8-dihydropyrido[2′,3′:4,5]pyrrolo[1,2-a]pyrazin-9(6H)-one]
5.87	6.66	6.14	7.49					O=C1c2c(-c3ccc(Cl)cc3)c3ncccc3n2CC2COCCN12 (centres unmarked) [Example 63, 13-(4-Chlorophenyl)-6a,7,9,10-tetrahydro-6H,12H-pyrido[2″,3″:4′,5′]pyrrolo[1′,2′:4,5]pyrazino[2,1-c][1,4]oxazin-12-one]
7.70	9.00	8.50	> 9.14					O=C1c2c(-c3cccc(Cl)c3)c3ncccc3n2CCN1C1CC1 [Example 48, 10-(3-Chlorophenyl)-8-cyclopropyl-7,8-dihydropyrido[2′,3′:4,5]pyrrolo[1,2-a]pyrazin-9(6H)-one]
6.49	7.89	7.09	8.50					O=C1c2c(-c3ccc(F)cc3)c3ncccc3n2CCN1C1CC1 [Example 23, 8-Cyclopropyl-10-(4-fluorophenyl)-7,8-dihydropyrido[2′,3′:4,5]pyrrolo[1,2-a]pyrazin-9(6H)-one]
				< 4.52	4.81	< 4.52	< 4.59	Cc1cccnc1-c1c2n(c3cccnc13)CCN(C1CC1)C2=O [Example 84, 8-Cyclopropyl-10-(3-methylpyridin-2-yl)-7,8-dihydropyrido[2′,3′:4,5]pyrrolo[1,2-a]pyrazin-9(6H)-one]
				< 4.52	< 4.52	4.53	< 4.52	Cc1nccc(-c2c3n(c4cccnc24)CCN(C2CC2)C3=O)n1 [Example 81, 8-Cyclopropyl-10-(2-methylpyrimidin-4-yl)-7,8-dihydropyrido [2′,3′:4,5] pyrrolo[1,2-a]pyrazin-9(6H)-one]
6.46	8.39	7.61	7.99					O=C1c2c(-c3ccc(Cl)cc3)c3nccnc3n2CCN1C1CC1 [Example 18, 10-(4-Chlorophenyl)-8-cyclopropyl-7,8-dihydropyrrolo[1,2-a:4,5-b′]dipyrazin-9(6H)-one]
7.55	> 9.17	8.46	> 8.96					O=C1c2c(-c3ccc(F)c(Cl)c3)c3ncccc3n2CCN1C1CC1 [Example 36, 10-(3-Chloro-4-fluorophenyl)-8-cyclopropyl-7,8-dihydropyrido[2′,3′:4,5]pyrrolo[1,2-a]pyrazin-9(6H)-one]
